# Laboratory results reported in patent US12180187B2, “1-phenyl-5-azinylpyrazolyl-3-oxyalkyl acids and their use for controlling unwanted plant growth” (BAYER AKTIENGESELLSCHAFT, priority 2019, dated 2024).
# Assays:
# ALOMY [1] = assay: Pre-emergence action at 320 g/ha against ALOMY; assay type: in vivo, Alopecurus myosuroides; settings: scored visually after about 3 weeks vs untreated controls (100% = plants have died)
# Summary of the method: (§1)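 Percent herbicidal activity was assessed by eye roughly three weeks post-application, comparing with untreated plants. Treatment consisted of applying formulated compound in water plus 0.5% additive to covering soil at 600 l/ha before emergence.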
# AVEFA = assay: Pre-emergence action at 320 g/ha against AVEFA; assay type: in vivo; settings: visual scoring after about 3 weeks vs untreated controls
# Source text: (§2) b) Seeds of monocotyledonous and dicotyledonous weed plants and crop plants are placed in plastic or organic planting pots and covered with soil. The compounds of the invention, formulated in the form of wettable powders (WP) or as emulsion concentrates (EC), are then applied onto the surface of the covering soil as aqueous suspension or emulsion with addition of 0.5% additive at a water application rate of 600 l/ha (converted). After the treatment, the pots are placed in a greenhouse and kept under good growth conditions for the trial plants. After about 3 weeks, the effect of the preparations is scored visually in comparison with untreated controls as percentages. For example, 100% activity=the plants have died, 0% activity=like control plants. Tables 13 to 26 below show the effects of selected compounds of the general formula (I) on various harmful plants and at an application rate corresponding to 320 g/ha, which were obtained by the experimental procedure mentioned above.
# ECHGC = assay: Pre-emergence action at 320 g/ha against ECHGC; assay type: in vivo, Echinochloa crus-galli; settings: visual scoring after about 3 weeks vs untreated controls
# Source text: as §2
# LOLRI [2] = assay: Pre-emergence action at 320 g/ha against LOLRI; assay type: in vivo, Lolium rigidum; settings: visual scoring after about 3 weeks vs untreated controls
# Source text: as §2
# SETVI [3] = assay: Pre-emergence action at 320 g/ha against SETVI; assay type: in vivo, Setaria viridis; settings: visual scoring after about 3 weeks vs untreated controls
# Source text: as §2
# AMARE [4] = assay: Pre-emergence action at 320 g/ha against AMARE; assay type: in vivo, Amaranthus retroflexus; settings: visual scoring after about 3 weeks vs untreated controls
# Summary of the method: as §1
# MATIN [5] = assay: Pre-emergence action at 320 g/ha against MATIN; assay type: in vivo, Tripleurospermum inodorum (Matricaria inodora); settings: visual scoring after about 3 weeks vs untreated controls
# Source text: as §2
# POLCO = assay: Pre-emergence action at 320 g/ha against POLCO; assay type: in vivo, Fallopia convolvulus (Polygonum convolvulus); settings: visual scoring after about 3 weeks vs untreated controls
# Summary of the method: as §1
# VERPE [6] = assay: Pre-emergence action at 320 g/ha against VERPE; assay type: in vivo, Veronica persica; settings: visual scoring after about 3 weeks vs untreated controls
# Source text: as §2
# VIOTR = assay: Pre-emergence action at 320 g/ha against VIOTR; assay type: in vivo, Viola tricolor; settings: dosage 320 g/ha
# Summary of the method: as §1
# DIGSA [7] = assay: Pre-emergence action at 320 g/ha against DIGSA; assay type: in vivo, Digitaria sanguinalis; settings: visual scoring after about 3 weeks vs untreated controls
# Source text: as §2
# ALOMY [8] = assay: Pre-emergence action against ALOMY, 1280 g/ha; assay type: in vivo, Alopecurus myosuroides; settings: visual scoring after about 3 weeks vs untreated controls, 100% = plants have died, 0% = like control plants
# Summary of the method: (§3)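 Mono- and dicot weed seeds sown in sandy loam were treated on the covering soil surface with WP or EC formulations plus 0.5% additive at 600 L water/ha. Pots stayed in a greenhouse; damage was scored visually after ~3 weeks as percent versus untreated controls (100% = dead).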
# DIGSA [9] = assay: Pre-emergence action against DIGSA, 1280 g/ha; assay type: in vivo, Digitaria sanguinalis; settings: visual scoring after about 3 weeks vs untreated controls, 100% = plants have died, 0% = like control plants
# Summary of the method: as §3
# ECHCG [10] = assay: Pre-emergence action against ECHCG, 1280 g/ha; assay type: in vivo, Echinochloa crus-galli; settings: visual scoring after about 3 weeks vs untreated controls, 100% = plants have died, 0% = like control plants
# Summary of the method: as §3
# LOLRI [11] = assay: Pre-emergence action against LOLRI, 1280 g/ha; assay type: in vivo, Lolium rigidum; settings: visual scoring after about 3 weeks vs untreated controls, 100% = plants have died, 0% = like control plants
# Summary of the method: as §3
# POAAN [12] = assay: Pre-emergence action against POAAN, 1280 g/ha; assay type: in vivo, Poa annua; settings: visual scoring after about 3 weeks vs untreated controls, 100% = plants have died, 0% = like control plants
# Summary of the method: as §3
# SETVI [13] = assay: Pre-emergence action against SETVI, 1280 g/ha; assay type: in vivo, Setaria viridis; settings: visual scoring after about 3 weeks vs untreated controls, 100% = plants have died, 0% = like control plants
# Summary of the method: as §3
# AMARE [14] = assay: Pre-emergence action against AMARE, 1280 g/ha; assay type: in vivo, Amaranthus retroflexus; settings: scored visually after about 3 weeks vs untreated controls (100% = plants have died)
# Summary of the method: as §3
# MATIN [15] = assay: Pre-emergence action against MATIN, 1280 g/ha; assay type: in vivo, Tripleurospermum inodorum (Matricaria inodora); settings: scored visually after about 3 weeks vs untreated controls (100% = plants have died)
# Summary of the method: as §3
# STEME = assay: Pre-emergence action against STEME, 1280 g/ha; assay type: in vivo, Stellaria media; settings: scored visually after about 3 weeks vs untreated controls (100% = plants have died)
# Summary of the method: as §3
# VERPE [16] = assay: Pre-emergence action against VERPE, 1280 g/ha; assay type: in vivo, Veronica persica; settings: scored visually after about 3 weeks vs untreated controls (100% = plants have died)
# Summary of the method: as §3
# ALOMY [17] = assay: Post-emergence action against ALOMY, 1.28 kg/ha; assay type: in vivo, Alopecurus myosuroides; settings: dosage 1280 g/ha, visual rating about 3 weeks after treatment vs untreated controls
# Summary of the method: (§4)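 Greenhouse-grown weeds (sandy loam, twin-sown pots) were treated 2–3 weeks post-sowing at one leaf. The spray was an aqueous WP/EC preparation plus 0.5% additive, applied at 600 L/ha. Scoring was visual at ~3 weeks, 0–100% versus untreated controls.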
# DIGSA [18] = assay: Post-emergence action against DIGSA, 1.28 kg/ha; assay type: in vivo, Digitaria sanguinalis; settings: dosage 1280 g/ha, visual rating about 3 weeks after treatment vs untreated controls
# Summary of the method: as §4
# ECHCG [19] = assay: Post-emergence action against ECHCG, 1.28 kg/ha; assay type: in vivo, Echinochloa crus-galli; settings: dosage 1280 g/ha, visual rating about 3 weeks after treatment vs untreated controls
# Summary of the method: as §4
# POAAN [20] = assay: Post-emergence action against POAAN, 1.28 kg/ha; assay type: in vivo, Poa annua; settings: dosage 1280 g/ha, visual rating about 3 weeks after treatment vs untreated controls
# Summary of the method: as §4
# SETVI [21] = assay: Post-emergence action against SETVI, 1.28 kg/ha; assay type: in vivo, Setaria viridis; settings: dosage 1280 g/ha, visual rating about 3 weeks after treatment vs untreated controls
# Protocol: • a) Seeds of mono- and dicotyledonous weed plants are placed in plastic pots in sandy loam soil (twin sowing with one species each of mono- or dicotyledonous weed plants per pot), covered with soil and cultivated in a greenhouse under controlled growth conditions. 2 to 3 weeks after sowing, the test plants are treated at the one-leaf stage. The compounds of the invention, formulated in the form of wettable powders (WP) or as emulsion concentrates (EC), are applied to the green parts of the plants as aqueous suspension or emulsion with addition of 0.5% additive at a water application rate equivalent to 600 litres per hectare. After the test plants have been kept in the greenhouse under optimum growth conditions for about 3 weeks, the activity of the preparations is rated visually in comparison to untreated controls. For example, 100% activity=the plants have died, 0% activity=like control plants. As shown by the results, compounds of the general formula (I) of the invention, in post-emergence treatment, have very good herbicidal efficacy (90% to 100% herbicidal action) against harmful plants such as Abutilon theophrasti, Digitaria sanguinalis, Echinochloa crus-galli, Matricaria inodora, Poa annua, at an application rate of 1.28 kg of active substance per hectare.
# ABUTH = assay: Post-emergence action against ABUTH, 1.28 kg/ha; assay type: in vivo, Abutilon theophrasti; settings: dosage 1280 g/ha, visual rating about 3 weeks after treatment vs untreated controls (100% = plants died)
# Summary of the method: as §4
# AMARE [22] = assay: Post-emergence action against AMARE, 1.28 kg/ha; assay type: in vivo, Amaranthus retroflexus; settings: dosage 1280 g/ha, visual rating about 3 weeks after treatment vs untreated controls (100% = plants died)
# Summary of the method: as §4
# MATIN [23] = assay: Post-emergence action against MATIN, 1.28 kg/ha; assay type: in vivo, Tripleurospermum inodorum (Matricaria inodora); settings: dosage 1280 g/ha, visual rating about 3 weeks after treatment vs untreated controls (100% = plants died)
# Summary of the method: as §4
# VERPE [24] = assay: Post-emergence action against VERPE, 1.28 kg/ha; assay type: in vivo, Veronica persica; settings: dosage 1280 g/ha, visual rating about 3 weeks after treatment vs untreated controls (100% = plants died)
# Summary of the method: as §4
SMILES,Pre-emergence action at 320 g/ha against ALOMY in % (ALOMY [1]),Pre-emergence action against AVEFA in % (AVEFA),Pre-emergence action against ECHGC in % (ECHGC),Pre-emergence action against LOLRI in % (LOLRI [2]),Pre-emergence action against SETVI in % (SETVI [3]),Pre-emergence action against AMARE in % (AMARE [4]),Pre-emergence action against MATIN in % (MATIN [5]),Pre-emergence action against POLCO in % (POLCO),Pre-emergence action against VERPE in % (VERPE [6]),Pre-emergence action against VIOTR in % (VIOTR),Pre-emergence action against DIGSA in % (DIGSA [7]),other results
COC(=O)C1CCCN1C(=O)COc1nn(-c2ccccc2F)c(-c2ccc(F)nc2)c1Br (stereo not shown) [Example X-016],100%,90%,90%,90%,100%,100%,90%,80%,100%,100%,,
COC(=O)[C@@H](C)Oc1nn(-c2ccccc2)c(-c2cccnc2)c1Cl [VII-041],90%,80%,80%,90%,,100%,100%,,100%,80%,,
O=C(O)C(F)Oc1nn(-c2ccccc2F)c(-c2ccc(F)nc2)c1Br (stereo not shown) [VII-057-a],,80%,80%,90%,100%,100%,90%,80%,,100%,100%,
COC(=O)COc1nn(-c2ccccc2F)c(-c2ccc(F)nc2)c1I [VII-113],90%,90%,90%,100%,90%,100%,90%,90%,90%,100%,,
O=C(COc1nn(-c2ccccc2F)c(-c2ccnc(F)c2)c1Br)OCC1CCOC1 (stereo not shown) [VIII-011],100%,,90%,90%,90%,100%,90%,,,100%,100%,Pre-emergence action against ALOMY (ALOMY [8]): 90%; Pre-emergence action against DIGSA (DIGSA [9]): 90%; Pre-emergence action against ECHCG (ECHCG [10]): 100%; Pre-emergence action against LOLRI (LOLRI [11]): 100%; Pre-emergence action against POAAN (POAAN [12]): 100%; Pre-emergence action against SETVI (SETVI [13]): 100%; Pre-emergence action against AMARE (AMARE [14]): 100%; Pre-emergence action against MATIN (MATIN [15]): 100%; Pre-emergence action against STEME (STEME): 100%; Pre-emergence action against VERPE (VERPE [16]): 100%; Post-emergence action against ALOMY (ALOMY [17]): 100%; Post-emergence action against DIGSA (DIGSA [18]): 100%; Post-emergence action against ECHCG (ECHCG [19]): 100%; Post-emergence action against POAAN (POAAN [20]): 100%; Post-emergence action against SETVI (SETVI [21]): 100%; Post-emergence action against ABUTH (ABUTH): 90%; Post-emergence action against AMARE (AMARE [22]): 100%; Post-emergence action against MATIN (MATIN [23]): 90%; Post-emergence action against VERPE (VERPE [24]): 100%
